The conditions of series [1]: oral, maximum dose of 800 mg 5 times per day, most patients; cited from earlier work.
For series [2] the following is noted: cited from earlier work.
A short description of series [3]: Renal function by creatinine clearance in one patient. It is filed as in vivo, human. Conditions: from ~29 mL/min before. The source says:
This treatment is useful, not only in stopping the progression of the diseases, but in returning more of organ function previously lost. Text books claim that organ function lost to these diseases can never be recovered, but this treatment has succeeded in recovering nearly all lost organ function. One of the diseases for which a large return of function appears achievable is progressive loss of renal function by unknown cause, but suspected to be autoimmune disease related. A clinical laboratory measure of kidney function is creatinine clearance. Creatinine is the metabolic product formed from creatine when food is converted to energy. Creatinine is produced at a steady state and is affected very little by diet or normal physical activities. When a subject's kidneys are damaged and/or cannot function normally, the amount of creatinine excreted in the subject's urine decreases while its level in the blood increases. Thus, the blood level of creatinine indicates how well the kidneys are working A higher than normal blood level of creatinine usually means the kidneys are not functioning properly. […] As the measured kidney function improves a parallel process occurs in other affected tissues or organs, with a diminution of the visible inflammation, swelling, pain, grinding and clicks in the afflicted articular joints. […]

The next series has as its system HSV-II. As to the kind of experiment: Suppression of vesicle formation, prodrome and viral shedding in person with ongoing HSV-II infection. It is filed as in vivo, human. The source says: The inventor in this application is aware of the prior art teaching of U.S. Pat. No. 5,559,114 (“'114”) and International Application No. PCT/US95/16207 (“16207”) that describe the treatment of certain autoimmune diseases using higher than FDA-approved amounts of certain 2-amino purine derivatives. According to the teachings of the '114 patent and the 16207 application, one compound useful was acyclovir (or its precursor valacyclovir) at a level of 20 to 50 g per day for a 100 kg subject (or 5-10 g of valacyclovir). Another compound was famciclovir (the precursor of penciclovir) at about 4-10 g per day for a 100 kg subject ([…]). In following the treatment regime so taught for a subject having HSV-II infection and with the drug used to suppress autoimmune disease signs or symptoms, the inventor of the present invention observed that although the signs or symptoms of the subject's autoimmune disease improved, the subject continued to experience discomfort even if the high dose regimen of famciclovir described in the '114 patent was followed for a number of years. In addition, the subject continued to have prodrome episodes, vesicle outbreaks, and viral shedding. The prodrome is the sensation of tingling, pain or both in an area where the herpetic vesicles will appear within 24 to 48 hours. This is a very reliable signal that vesicles will appear on schedule. Vesicles are blisters or ulcers that appear on the skin or various mucous membranes as a result of the virus's replication process destroying cells that it has invaded. Viral shedding means that the virus is active on the skin, even though there is no prodrome or vesicle formation, and can be transmitted to another subject through skin contact, kissing, sexual intercourse, or oral sex.
This inventor interprets this to mean that viral shedding has been reduced dramatically, at least 90%. It is probably that viral shedding has been stopped completely. […]

Series [4] is described as follows: Aseptic meningio-encephalitis subject treated with much higher doses. The format is in vivo, human. Conditions: much higher doses than '114. The source says: While the treatment of autoimmune disease using high levels of the anti-herpetic drugs taught in patent '114 provided noticeable improvements in a patient, signs or symptoms lingered even with ongoing treatment. Knowing the warning of the anti-herpetic drug labels that were on the market against using higher doses, increasing the dose even further was definitely contraindicated. However, the inventor was confronted with a problem of a subject presenting with extremely painful migraine type headache, which was diagnosed to be aseptic (not bacterial) meningio-encephalitis. […] The inventor also discovered that by using the much higher doses of famciclovir than previously taught in '114, the need to titrate a subject to tolerance of the drug could be avoided, that is the higher doses were effective at ameliorating the signs or symptoms of the disease without the accompanying pain of starting at a low dose and increasing it to a therapeutically effective level, as experienced with the doses of '114. While not wishing to be bound by a particular theory, it is thought that by regularly administering the higher levels the drug, a subject avoids a fluctuating blood level that can add to the irritation of already irritated nerves by major influxes of drug at a high level after having been at a lower level in the subject. […]

The conditions of series [5]: cited from earlier work. The source holds these as a separate data set.

Structures are written as SMILES. Entries after “also recorded” stand apart in the source; their conditions may differ. Where two headings read alike, the source gives them in different places.

The source of these data is patent US8853222B2, “Treatment of herpes virus related diseases” (priority 2008, dated 2014).

As to `Nc1nc2c(ncn2COCCO)c(=O)[nH]1` [acyclovir, 2-amino-1,9-dihydro-9-[(2-hydroxyethoxy)methyl]-6H-purin-6-one], the blood level result in series [1] is on record as “about 1.61 μg/mL”. Besides, the “effect on pain, muscle spasms, joint tenderness and butterfly rash” value in series [2] (lupus patient, between 40 and 50 g per day) was “controlled pain, muscle spasms, joint tenderness and the butterfly rash”.
Regarding `CC(=O)OCC(CCn1cnc2cnc(N)nc21)COC(C)=O` [famciclovir, 2-[2-(2-amino-9H-purin-9-yl)ethyl]-1,3-propanediol diacetate], the creatinine clearance in series [3] (doses of '114, same patient) is around 89 mL/min; in series [3] (very high doses, one patient), “more than 140 mL/min”. In the series with HSV-II (300 mg/kg/day, inventor's interpretation from suppressed sensations), the viral shedding reduced entry is “at least 90%”. In the series on HSV-II (10-12 g per day ('114 dose level)), the “prodrome and vesicle outbreak” value was “continued to experience prodrome and vesicle outbreak”. Further, the vesicle formation result in the series with HSV-II (ongoing dosage of 300 mg/kg/day, 300 mg/kg/day) was “no new vesicles form; also recorded: total suppression”. Besides, in series [4], the “signs or symptoms of the encephalitis” value is given as “alleviated”. The “effect on pain, muscle spasms, joint tenderness and butterfly rash” value in series [2] (10-12 g per day) is “same effect”. The oral bioavailability in series [5] (in vivo, po) is listed as 77±8%.
In the case of `CC(C)[C@H](N)C(=O)OCCOCn1cnc2c(=O)[nH]c(N)nc21` [valacyclovir, L-valine, 2-[(2-amino-1,6-dihydro-6-oxo-9H-purin-9-yl)methoxy]ethyl ester], the oral bioavailability in series [5] (oral) was 55±9%.
